Tests used:
Assay type in all cases: in vivo
Panonychus citri [1] = test: Panonychus citri test; outdoor spray treatment (METTCI), lemon trees; details: METTCI on C. limon
Text: (§1) Panonychus citri Test; Outdoor Spray Treatment (METTCI)
(§2) To produce an appropriate active ingredient formulation, 1 part by weight of active ingredient is mixed with the stated amounts of water to the desired concentration. Added to the spray liquor is 0.1% a.i. Crovol.
(§3) Three two-year-old lemon trees (Citrus limon) affected by all stages of the citrus red mite (Panonychus citri) are sprayed with an active ingredient formulation of each desired concentration. Application is effected with a motorized backpack sprayer. In accordance with common practice, the water application rate is 1000 l/Ha. One spray application is conducted in each case.
(§4) After the desired time, the remaining mites per leaf are counted and calculated as the efficacy by the Abbott formula:
(§5) B=treated plots K=untreated control plots

Panonychus citri [2] = test: Panonychus citri test; outdoor spray treatment (METTCI), orange trees; details: METTCI on C. sinensis
Text: Panonychus citri test; outdoor spray treatment (METTCI)
To produce an appropriate active ingredient formulation, 1 part by weight of active ingredient is mixed with the stated amounts of water to the desired concentration. Added to the spray liquor is 0.1% a.i. rapeseed oil methyl ester.
as §3, with “orange” for “lemon”, “sinensis)” for “limon)”
as §4, §5

Brevipalpus phoenicis = Brevipalpus phoenicis test; outdoor spray treatment (BRVPPH), orange trees; details: BRVPPH on C. sinensis
Text: Brevipalpus phoenicis Test; Outdoor Spray Treatment (BRVPPH)
as §2
as §3, with “eight-year-old orange” for “two-year-old lemon”, “sinensis)” for “limon)”, “false spider” for “citrus red”, “(Brevipalpus phoenicis)” for “(Panonychus citri)”
as §4, §5

Phyllocoptruta oleivora = Phyllocoptruta oleivora test; outdoor spray treatment (PHYUOL), orange trees; details: PHYUOL on C. sinensis
Text: Phyllocoptruta oleivora Test; Outdoor Spray Treatment (PHYUOL)
as §2
as §3, with “Three 15-year-old orange” for “Three two-year-old lemon”, “(Citrus sinensis)” for “(Citrus limon)”, “citrus rust” for “citrus red”, “mite (Phyllocoptruta oleivora)” for “mite (Panonychus citri)”
as §4, §5

Eutetranychus anneckei = Eutetranychus anneckei test; outdoor spray treatment (EUTEOR), orange trees; details: EUTEOR on C. sinensis
Text: Eutetranychus anneckei Test; Outdoor Spray Treatment (EUTEOR)
as §2
as §3, with “orange” for “lemon”, “sinensis)” for “limon)”, “oriental spider” for “citrus red”, “(Eutetranychus anneckei)” for “(Panonychus citri)”
as §4, §5

Panonychus citri [3] = test: Panonychus citri test; outdoor spray treatment (METTCI), satsuma trees; details: METTCI on C. unshiu
Text: as §1, §2
as §3, with “5-year-old satsuma” for “two-year-old lemon”, “unshiu)” for “limon)”, “1850” for “1000”
as §4, §5

[4] = 100 g ai/ha/mch, + Crovol 0.1%, 7 Dat
[5] = 100 g ai/ha/mch, + Crovol 0.1%, 14 Dat

## Cn1nc(C(F)(F)C(F)(F)F)c(C(F)(F)F)c1C(=O)Nc1ccc(Cl)c(C(=O)NCc2ccccc2)c1 [Compound (I)]
Panonychus citri [1]; 100 g ai/ha/mch, + Crovol 0.1%, 6 Dat
  Efficacy (% Abbott): 90 % Abbott
Panonychus citri [1]; 100 g ai/ha/mch, + Crovol 0.1%, 23 Dat
  Efficacy (% Abbott): 99 % Abbott
Panonychus citri [2]; 50 g ai/ha/mch, + RME 0.1%, 1 Dat
  Efficacy (% Abbott): 85 % Abbott
Panonychus citri [2]; 50 g ai/ha/mch, + RME 0.1%, 5 Dat
  Efficacy (% Abbott): 99 % Abbott
Panonychus citri [2]; 100 g ai/ha/mch, + RME 0.1%, 1 Dat
  Efficacy (% Abbott): 99 % Abbott
Panonychus citri [2]; 100 g ai/ha/mch, + RME 0.1%, 5 Dat
  Efficacy (% Abbott): 100 % Abbott
Brevipalpus phoenicis; 100 g ai/ha/mch, + Crovol 0.1%, 3 Dat
  Efficacy (% Abbott): 88.4 % Abbott
Brevipalpus phoenicis; [4]
  Efficacy (% Abbott): 95 % Abbott
Brevipalpus phoenicis; [5]
  Efficacy (% Abbott): 100 % Abbott
Brevipalpus phoenicis; 100 g ai/ha/mch, + Crovol 0.1%, 21 Dat
  Efficacy (% Abbott): 100 % Abbott
Brevipalpus phoenicis; 100 g ai/ha/mch, + Crovol 0.1%, 49 Dat
  Efficacy (% Abbott): 92.7 % Abbott
Brevipalpus phoenicis; 100 g ai/ha/mch, + Crovol 0.1%, 60 Dat
  Efficacy (% Abbott): 100 % Abbott
Phyllocoptruta oleivora; 75 g ai/ha/mch, + Crovol 0.1%, 5 Dat
  Efficacy (% Abbott): 36 % Abbott
Phyllocoptruta oleivora; 75 g ai/ha/mch, + Crovol 0.1%, 13 Dat
  Efficacy (% Abbott): 45 % Abbott
Phyllocoptruta oleivora; 75 g ai/ha/mch, + Crovol 0.1%, 19 Dat
  Efficacy (% Abbott): 64 % Abbott
Phyllocoptruta oleivora; 75 g ai/ha/mch, + Crovol 0.1%, 27 Dat
  Efficacy (% Abbott): 72 % Abbott
Phyllocoptruta oleivora; 100 g ai/ha/mch, + Crovol 0.1%, 5 Dat
  Efficacy (% Abbott): 77 % Abbott
Phyllocoptruta oleivora; 100 g ai/ha/mch, + Crovol 0.1%, 13 Dat
  Efficacy (% Abbott): 84 % Abbott
Phyllocoptruta oleivora; 100 g ai/ha/mch, + Crovol 0.1%, 19 Dat
  Efficacy (% Abbott): 94 % Abbott
Phyllocoptruta oleivora; 100 g ai/ha/mch, + Crovol 0.1%, 27 Dat
  Efficacy (% Abbott): 96 % Abbott
Eutetranychus anneckei; 100 g ai/ha/mch, + Crovol 0.1%, 8 Dat
  Efficacy (% Abbott): 99 % Abbott
Eutetranychus anneckei; 100 g ai/ha/mch, + Crovol 0.1%, 16 Dat
  Efficacy (% Abbott): 99 % Abbott
Eutetranychus anneckei; 100 g ai/ha/mch, + Crovol 0.1%, 22 Dat
  Efficacy (% Abbott): 100 % Abbott
Eutetranychus anneckei; 100 g ai/ha/mch, + Crovol 0.1%, 30 Dat
  Efficacy (% Abbott): 98 % Abbott
Eutetranychus anneckei; 100 g ai/ha/mch, + Crovol 0.1%, 36 Dat
  Efficacy (% Abbott): 93 % Abbott
Panonychus citri [3]; 100 g ai/ha/mch, + Crovol 0.1%, 4 Dat
  Efficacy (% Abbott): 100 % Abbott
Panonychus citri [3]; [4]
  Efficacy (% Abbott): 98.1 % Abbott
Panonychus citri [3]; [5]
  Efficacy (% Abbott): 97.6 % Abbott

## Cc1nn(C)c(/C(OC(=O)C(C)(C)C)=C(\C#N)c2ccc(C(C)(C)C)cc2)c1C [Cyenopyrafen, reference compound]
Brevipalpus phoenicis; 150 g ai/ha/mch, 3 Dat
  Efficacy (% Abbott): 74.4 % Abbott
Brevipalpus phoenicis; 150 g ai/ha/mch, 7 Dat
  Efficacy (% Abbott): 92.5 % Abbott
Brevipalpus phoenicis; 150 g ai/ha/mch, 14 Dat
  Efficacy (% Abbott): 94.7 % Abbott
Brevipalpus phoenicis; 150 g ai/ha/mch, 21 Dat
  Efficacy (% Abbott): 100 % Abbott
Brevipalpus phoenicis; 150 g ai/ha/mch, 49 Dat
  Efficacy (% Abbott): 78 % Abbott
Brevipalpus phoenicis; 150 g ai/ha/mch, 60 Dat
  Efficacy (% Abbott): 97.6 % Abbott
Phyllocoptruta oleivora; 150 g ai/ha/mch, 5 Dat
  Efficacy (% Abbott): 32 % Abbott
Phyllocoptruta oleivora; 150 g ai/ha/mch, 13 Dat
  Efficacy (% Abbott): 29 % Abbott
Phyllocoptruta oleivora; 150 g ai/ha/mch, 19 Dat
  Efficacy (% Abbott): 31 % Abbott
Phyllocoptruta oleivora; 150 g ai/ha/mch, 27 Dat
  Efficacy (% Abbott): 32 % Abbott
Eutetranychus anneckei; 150 g ai/ha/mch, 8 Dat
  Efficacy (% Abbott): 100 % Abbott
Eutetranychus anneckei; 150 g ai/ha/mch, 16 Dat
  Efficacy (% Abbott): 96 % Abbott
Eutetranychus anneckei; 150 g ai/ha/mch, 22 Dat
  Efficacy (% Abbott): 100 % Abbott
Eutetranychus anneckei; 150 g ai/ha/mch, 30 Dat
  Efficacy (% Abbott): 83 % Abbott
Eutetranychus anneckei; 150 g ai/ha/mch, 36 Dat
  Efficacy (% Abbott): 63 % Abbott

## CCC(C)(C)C(=O)OC1=C(c2ccc(Cl)cc2Cl)C(=O)OC12CCCCC2 [Spirodiclofen, reference compound]
Panonychus citri [1]; 48 g ai/ha/mch, 6 Dat
  Efficacy (% Abbott): 58 % Abbott
Panonychus citri [1]; 48 g ai/ha/mch, 23 Dat
  Efficacy (% Abbott): 100 % Abbott
Panonychus citri [2]; 48 g ai/ha/mch, 1 Dat
  Efficacy (% Abbott): 29 % Abbott
Panonychus citri [2]; 48 g ai/ha/mch, 5 Dat
  Efficacy (% Abbott): 90 % Abbott
Panonychus citri [3]; 144 g ai/ha/mch, 4 Dat
  Efficacy (% Abbott): 70.7 % Abbott
Panonychus citri [3]; 144 g ai/ha/mch, 7 Dat
  Efficacy (% Abbott): 85.2 % Abbott
Panonychus citri [3]; 144 g ai/ha/mch, 14 Dat
  Efficacy (% Abbott): 78 % Abbott

Reference: patent US20150245612A1, “ACTIVE INGREDIENT FOR CONTROLLING SPIDER MITES” (BAYER CROPSCIENCE AG, priority 2014, published 2015)
